Test results: the NIST ThermoML archive (doi:10.1016/j.jct.2012.03.003)

Test: xn = mol fraction of the nth substance listed
Details: Liquid, Vibrating tube method

COc1cc2c(cc1O)CC1c3c(cc(O)c(OC)c3-2)CCN1C (stereo not given) [boldine] + CCCO
Details	mass density [kg/m3]
313.09 K, 1000 kPa, x1 = 0.0142	812.51
313.09 K, 2000 kPa, x1 = 0.0142	813.26
313.09 K, 3000 kPa, x1 = 0.0142	814.02
313.09 K, 4000 kPa, x1 = 0.0142	814.8
313.09 K, 5000 kPa, x1 = 0.0142	815.58
313.09 K, 6000 kPa, x1 = 0.0142	816.36
313.09 K, 7000 kPa, x1 = 0.0142	817.15
313.09 K, 8000 kPa, x1 = 0.0142	817.95
313.09 K, 9000 kPa, x1 = 0.0142	818.75
313.09 K, 10000 kPa, x1 = 0.0142	819.54
313.09 K, 11000 kPa, x1 = 0.0142	820.32
313.09 K, 12000 kPa, x1 = 0.0142	821.12
313.09 K, 13000 kPa, x1 = 0.0142	821.89
313.09 K, 14000 kPa, x1 = 0.0142	822.65
313.09 K, 15000 kPa, x1 = 0.0142	823.42
313.09 K, 16000 kPa, x1 = 0.0142	824.16
313.09 K, 17000 kPa, x1 = 0.0142	824.91
313.09 K, 18000 kPa, x1 = 0.0142	825.63
313.09 K, 19000 kPa, x1 = 0.0142	826.34
313.09 K, 20000 kPa, x1 = 0.0142	827.03
313.14 K, 1000 kPa, x1 = 0.0046	797.2
313.14 K, 2000 kPa, x1 = 0.0046	797.97
313.14 K, 3000 kPa, x1 = 0.0046	798.75
313.14 K, 4000 kPa, x1 = 0.0046	799.53
313.14 K, 5000 kPa, x1 = 0.0046	800.32
313.14 K, 6000 kPa, x1 = 0.0046	801.13
313.14 K, 7000 kPa, x1 = 0.0046	801.93
313.14 K, 8000 kPa, x1 = 0.0046	802.74
313.14 K, 9000 kPa, x1 = 0.0046	803.55
313.14 K, 10000 kPa, x1 = 0.0046	804.36
313.14 K, 11000 kPa, x1 = 0.0046	805.17
313.14 K, 12000 kPa, x1 = 0.0046	805.97
313.14 K, 13000 kPa, x1 = 0.0046	806.77
313.14 K, 14000 kPa, x1 = 0.0046	807.55
313.14 K, 15000 kPa, x1 = 0.0046	808.32
313.14 K, 16000 kPa, x1 = 0.0046	809.08
313.14 K, 17000 kPa, x1 = 0.0046	809.85
313.14 K, 18000 kPa, x1 = 0.0046	810.58
313.14 K, 19000 kPa, x1 = 0.0046	811.3
313.14 K, 20000 kPa, x1 = 0.0046	812.01
313.15 K, 1000 kPa, x1 = 0.0018	790.99
313.15 K, 1000 kPa, x1 = 0.0077	801.14
313.15 K, 1000 kPa, x1 = 0.0112	807.94
313.15 K, 2000 kPa, x1 = 0.0018	791.76
313.15 K, 2000 kPa, x1 = 0.0077	801.89
313.15 K, 2000 kPa, x1 = 0.0112	808.71
313.15 K, 3000 kPa, x1 = 0.0018	792.55
313.15 K, 3000 kPa, x1 = 0.0077	802.66
313.15 K, 3000 kPa, x1 = 0.0112	809.47
313.15 K, 4000 kPa, x1 = 0.0018	793.33
313.15 K, 4000 kPa, x1 = 0.0077	803.44
313.15 K, 4000 kPa, x1 = 0.0112	810.25
313.15 K, 5000 kPa, x1 = 0.0018	794.13
313.15 K, 5000 kPa, x1 = 0.0077	804.23
313.15 K, 5000 kPa, x1 = 0.0112	811.06
313.15 K, 6000 kPa, x1 = 0.0018	794.94
313.15 K, 6000 kPa, x1 = 0.0077	805.03
313.15 K, 6000 kPa, x1 = 0.0112	811.83
313.15 K, 7000 kPa, x1 = 0.0018	795.75
313.15 K, 7000 kPa, x1 = 0.0077	805.83
313.15 K, 7000 kPa, x1 = 0.0112	812.63
313.15 K, 8000 kPa, x1 = 0.0018	796.57
313.15 K, 8000 kPa, x1 = 0.0077	806.63
313.15 K, 8000 kPa, x1 = 0.0112	813.42
313.15 K, 9000 kPa, x1 = 0.0018	797.38
313.15 K, 9000 kPa, x1 = 0.0077	807.44
313.15 K, 9000 kPa, x1 = 0.0112	814.2
313.15 K, 10000 kPa, x1 = 0.0018	798.19
313.15 K, 10000 kPa, x1 = 0.0077	808.25
313.15 K, 10000 kPa, x1 = 0.0112	815
313.15 K, 11000 kPa, x1 = 0.0018	799.01
313.15 K, 11000 kPa, x1 = 0.0077	809.05
313.15 K, 11000 kPa, x1 = 0.0112	815.81
313.15 K, 12000 kPa, x1 = 0.0018	799.83
313.15 K, 12000 kPa, x1 = 0.0077	809.85
313.15 K, 12000 kPa, x1 = 0.0112	816.58
313.15 K, 13000 kPa, x1 = 0.0018	800.62
313.15 K, 13000 kPa, x1 = 0.0077	810.64
313.15 K, 13000 kPa, x1 = 0.0112	817.36
313.15 K, 14000 kPa, x1 = 0.0018	801.41
313.15 K, 14000 kPa, x1 = 0.0077	811.41
313.15 K, 14000 kPa, x1 = 0.0112	818.14
313.15 K, 15000 kPa, x1 = 0.0018	802.19
313.15 K, 15000 kPa, x1 = 0.0077	812.18
313.15 K, 15000 kPa, x1 = 0.0112	818.89
313.15 K, 16000 kPa, x1 = 0.0018	802.95
313.15 K, 16000 kPa, x1 = 0.0077	812.94
313.15 K, 16000 kPa, x1 = 0.0112	819.65
313.15 K, 17000 kPa, x1 = 0.0018	803.72
313.15 K, 17000 kPa, x1 = 0.0077	813.69
313.15 K, 17000 kPa, x1 = 0.0112	820.39
313.15 K, 18000 kPa, x1 = 0.0018	804.46
313.15 K, 18000 kPa, x1 = 0.0077	814.42
313.15 K, 18000 kPa, x1 = 0.0112	821.12
313.15 K, 19000 kPa, x1 = 0.0018	805.19
313.15 K, 19000 kPa, x1 = 0.0077	815.14
313.15 K, 19000 kPa, x1 = 0.0112	821.85
313.15 K, 20000 kPa, x1 = 0.0018	805.9
313.15 K, 20000 kPa, x1 = 0.0077	815.85
313.15 K, 20000 kPa, x1 = 0.0112	822.53
323.1 K, 1000 kPa, x1 = 0.0018	782.67
323.1 K, 2000 kPa, x1 = 0.0018	783.52
323.1 K, 3000 kPa, x1 = 0.0018	784.36
323.1 K, 4000 kPa, x1 = 0.0018	785.2
323.1 K, 5000 kPa, x1 = 0.0018	786.06
323.1 K, 6000 kPa, x1 = 0.0018	786.91
323.1 K, 7000 kPa, x1 = 0.0018	787.78
323.1 K, 8000 kPa, x1 = 0.0018	788.64
323.1 K, 9000 kPa, x1 = 0.0018	789.49
323.1 K, 10000 kPa, x1 = 0.0018	790.35
323.1 K, 11000 kPa, x1 = 0.0018	791.2
323.1 K, 12000 kPa, x1 = 0.0018	792.05
323.1 K, 13000 kPa, x1 = 0.0018	792.88
323.1 K, 14000 kPa, x1 = 0.0018	793.69
323.1 K, 15000 kPa, x1 = 0.0018	794.51
323.1 K, 16000 kPa, x1 = 0.0018	795.32
323.1 K, 17000 kPa, x1 = 0.0018	796.1
323.1 K, 18000 kPa, x1 = 0.0018	796.89
323.1 K, 19000 kPa, x1 = 0.0018	797.65
323.1 K, 20000 kPa, x1 = 0.0018	798.39
323.11 K, 1000 kPa, x1 = 0.0112	799.52
323.11 K, 1000 kPa, x1 = 0.0142	804.17
323.11 K, 2000 kPa, x1 = 0.0112	800.32
323.11 K, 2000 kPa, x1 = 0.0142	804.99
323.11 K, 3000 kPa, x1 = 0.0112	801.16
323.11 K, 3000 kPa, x1 = 0.0142	805.81
323.11 K, 4000 kPa, x1 = 0.0112	801.99
323.11 K, 4000 kPa, x1 = 0.0142	806.63
323.11 K, 5000 kPa, x1 = 0.0112	802.82
323.11 K, 5000 kPa, x1 = 0.0142	807.51
323.11 K, 6000 kPa, x1 = 0.0112	803.66
323.11 K, 6000 kPa, x1 = 0.0142	808.3
323.11 K, 7000 kPa, x1 = 0.0112	804.52
323.11 K, 7000 kPa, x1 = 0.0142	809.14
323.11 K, 8000 kPa, x1 = 0.0112	805.34
323.11 K, 8000 kPa, x1 = 0.0142	809.97
323.11 K, 9000 kPa, x1 = 0.0112	806.15
323.11 K, 9000 kPa, x1 = 0.0142	810.81
323.11 K, 10000 kPa, x1 = 0.0112	807.01
323.11 K, 10000 kPa, x1 = 0.0142	811.64
323.11 K, 11000 kPa, x1 = 0.0112	807.85
323.11 K, 11000 kPa, x1 = 0.0142	812.47
323.11 K, 12000 kPa, x1 = 0.0112	808.67
323.11 K, 12000 kPa, x1 = 0.0142	813.28
323.11 K, 13000 kPa, x1 = 0.0112	809.47
323.11 K, 13000 kPa, x1 = 0.0142	814.1
323.11 K, 14000 kPa, x1 = 0.0112	810.29
323.11 K, 14000 kPa, x1 = 0.0142	814.89
323.11 K, 15000 kPa, x1 = 0.0112	811.07
323.11 K, 15000 kPa, x1 = 0.0142	815.69
